Results published in ChEMBL document CHEMBL1201862, “PubChem BioAssay data set” (2004).
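In this assay, cells in 96-well plates receive the compound at five concentrations for 48 hours. Endpoints are linearly interpolated between the surrounding concentrations. At the GI50, growth is halved.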 The source made the active and inactive calls. Rule as the data show it: active = GI50 up to about 1.1 µM and inactive = higher. Residues, ends and D or L forms follow the SMILES beside them.

Key:
Experiment in all cases: NCI tumour cell line growth inhibition, 48 h
A549 = system: A549
ACHN = system: ACHN
CCRF-CEM = system: CCRF-CEM
DU-145 = system: DU-145
HL-60 = system: HL-60
HOP-62 = system: HOP-62
HT-29 = system: HT-29
Hs-578T = system: Hs-578T
LOX IMVI = system: LOX IMVI
M14 = system: M14
MDA-MB-435 = system: MDA-MB-435
NCI-H226 = system: NCI-H226
NCI/ADR-RES = system: NCI/ADR-RES
OVCAR-5 = system: OVCAR-5
SK-MEL-2 = system: SK-MEL-2
SW-620 = system: SW-620
K562 = system: K562
SK-OV-3 = system: SK-OV-3
UACC-62 = system: UACC-62

Row | SMILES | GI50 (A549) | GI50 (ACHN) | GI50 (CCRF-CEM) | GI50 (DU-145) | GI50 (HL-60) | GI50 (HOP-62) | GI50 (HT-29) | GI50 (Hs-578T) | GI50 (LOX IMVI) | GI50 (M14) | GI50 (MDA-MB-435) | GI50 (NCI-H226) | GI50 (NCI/ADR-RES) | GI50 (OVCAR-5) | GI50 (SK-MEL-2) | GI50 (SW-620) | GI50 (K562) | GI50 (SK-OV-3) | GI50 (UACC-62)
1 | O=c1[nH]c(=O)n(CCOCP(=O)(O)O)nc1Br | > 100 µM (inactive) | > 100 µM (inactive) | > 100 µM (inactive) | > 100 µM (inactive) | > 100 µM (inactive) | > 100 µM (inactive) | > 100 µM (inactive) | > 100 µM (inactive) | > 100 µM (inactive) | > 100 µM (inactive) | > 100 µM (inactive) | > 100 µM (inactive) | > 100 µM (inactive) | > 100 µM (inactive) | > 100 µM (inactive) | > 100 µM (inactive) | – | – | –
2 | CC(C)=CCC[C@@H](C)C1=CC(=O)C(C)=C(O)C1=O [ISOPEREZONE] | 12.3 µM (inactive) | 3.85 µM (inactive) | 1.19 µM (inactive) | 6.08 µM (inactive) | 0.3 µM (active) | 12.9 µM (inactive) | 7.16 µM (inactive) | 6.43 µM (inactive) | 2.83 µM (inactive) | 5.25 µM (inactive) | 4.31 µM (inactive) | 7.19 µM (inactive) | 3.19 µM (inactive) | 14.4 µM (inactive) | 9.64 µM (inactive) | 4.02 µM (inactive) | 1.58 µM (inactive) | 17.9 µM (inactive) | 9.33 µM (inactive)
3 | CC1(C)N=C(N)N=C(N)N1c1cccc(OCc2cccc(N)c2)c1 | 7.21 µM (inactive) | > 100 µM (inactive) | 4.85 µM (inactive) | > 86.3 µM (inactive) | 5.61 µM (inactive) | > 91.6 µM (inactive) | 16.9 µM (inactive) | > 100 µM (inactive) | 9.46 µM (inactive) | 58.5 µM (inactive) | 16.4 µM (inactive) | > 100 µM (inactive) | > 100 µM (inactive) | 26.9 µM (inactive) | > 100 µM (inactive) | > 100 µM (inactive) | 3.17 µM (inactive) | > 100 µM (inactive) | 6.11 µM (inactive)
4 | O=C(CBr)c1ccc2cc(Br)c3ccccc3c2c1 | 27.2 µM (inactive) | 52.1 µM (inactive) | 33.3 µM (inactive) | 22.8 µM (inactive) | 25.9 µM (inactive) | 37.4 µM (inactive) | 32.3 µM (inactive) | 25.8 µM (inactive) | 36.3 µM (inactive) | 25.1 µM (inactive) | 19.9 µM (inactive) | 9.33 µM (inactive) | 36.7 µM (inactive) | 24.7 µM (inactive) | 20.6 µM (inactive) | 25.2 µM (inactive) | 26.7 µM (inactive) | – | 14.1 µM (inactive)
5 | OC(Cc1cccnc1)(c1ccccc1)c1ccccc1 | > 100 µM (inactive) | > 100 µM (inactive) | > 100 µM (inactive) | > 100 µM (inactive) | 55.5 µM (inactive) | > 100 µM (inactive) | > 100 µM (inactive) | > 100 µM (inactive) | > 100 µM (inactive) | 68.1 µM (inactive) | 47 µM (inactive) | > 100 µM (inactive) | 57.9 µM (inactive) | > 100 µM (inactive) | > 100 µM (inactive) | > 100 µM (inactive) | 72.1 µM (inactive) | > 100 µM (inactive) | 91.6 µM (inactive)
6 | COC(=O)/C(=C(/C)c1ccco1)P(=O)(OC)OC | > 100 µM (inactive) | > 100 µM (inactive) | > 100 µM (inactive) | > 100 µM (inactive) | – | > 100 µM (inactive) | > 100 µM (inactive) | > 100 µM (inactive) | > 100 µM (inactive) | > 100 µM (inactive) | > 100 µM (inactive) | > 100 µM (inactive) | > 100 µM (inactive) | > 100 µM (inactive) | > 100 µM (inactive) | > 100 µM (inactive) | – | > 100 µM (inactive) | > 100 µM (inactive)
7 | CCC(C)C(NC(=O)C(CCCCN)NC(=O)C(NC(=O)C(CCC(N)=O)NC(=O)C(N)CCCNC(=N)N)C(C)CC)C(=O)NC(Cc1c[nH]c2ccccc12)C(=O)NC(Cc1ccccc1)C(=O)NC(CCC(N)=O)C(=O)NC(CC(N)=O)C(=O)NC(CCCNC(=N)N)C(=O)NC(CCCNC(=N)N)C(=O)NC(CCSC)C(=O)NC(CCCCN)C(=O)NC(Cc1c[nH]c2ccccc12)C(=O)NC(CCCCN)C(=O)NC(CCCCN)C(=O)N1CCCC1C(=O)NC(C)C(=O)NC(CCCCN)C(=O)NC(CCCNC(=N)N)C(=O)NC(CCCCN)C(=O)NC(CC(C)C)C(=O)NC(Cc1ccccc1)C(=O)NCC(=O)O (stereo not given) (H-RQIKIWFQNRRMKWKKPAKRKLFG-OH; configuration not given here) | > 25 µM (inactive) | > 25 µM (inactive) | 12.4 µM (inactive) | > 25 µM (inactive) | 6.93 µM (inactive) | > 25 µM (inactive) | > 25 µM (inactive) | 21.1 µM (inactive) | > 25 µM (inactive) | 12.1 µM (inactive) | 16 µM (inactive) | > 25 µM (inactive) | > 25 µM (inactive) | > 25 µM (inactive) | > 25 µM (inactive) | > 25 µM (inactive) | > 25 µM (inactive) | > 25 µM (inactive) | –
8 | COC(=O)C(O)P(=O)(OC)OC (stereo not given) | > 100 µM (inactive) | > 100 µM (inactive) | – | > 100 µM (inactive) | > 100 µM (inactive) | > 100 µM (inactive) | > 100 µM (inactive) | > 100 µM (inactive) | > 100 µM (inactive) | > 100 µM (inactive) | > 100 µM (inactive) | > 100 µM (inactive) | > 100 µM (inactive) | > 100 µM (inactive) | > 100 µM (inactive) | > 100 µM (inactive) | > 100 µM (inactive) | > 100 µM (inactive) | > 100 µM (inactive)
9 | CNc1nc(=S)[nH]c2sc3c(c12)CCCC3 | – | > 75 µM (inactive) | – | > 75 µM (inactive) | > 75 µM (inactive) | > 75 µM (inactive) | > 75 µM (inactive) | > 75 µM (inactive) | > 75 µM (inactive) | – | > 75 µM (inactive) | > 75 µM (inactive) | > 75 µM (inactive) | > 75 µM (inactive) | > 75 µM (inactive) | > 75 µM (inactive) | > 75 µM (inactive) | – | > 75 µM (inactive)
10 | CCCCN1C(=O)c2c(-c3sccc3N)sc(-c3sccc3N)c2C1=O | 24.1 µM (inactive) | 15.7 µM (inactive) | 4.05 µM (inactive) | 21.4 µM (inactive) | – | 14.7 µM (inactive) | 14.2 µM (inactive) | 16.9 µM (inactive) | 30.7 µM (inactive) | 8.38 µM (inactive) | 30.8 µM (inactive) | 0.713 µM (active) | 21.3 µM (inactive) | 21.5 µM (inactive) | 32.7 µM (inactive) | > 32.6 µM (inactive) | 16.3 µM (inactive) | 10.6 µM (inactive) | 19.3 µM (inactive)
11 | O=c1c(C(c2ccc(C(c3c(O)oc4cc(O)ccc4c3=O)c3c(O)oc4cc(O)ccc4c3=O)cc2)c2c(O)oc3cc(O)ccc3c2=O)c(O)oc2cc(O)ccc12 | > 100 µM (inactive) | – | 53.2 µM (inactive) | > 100 µM (inactive) | 44.6 µM (inactive) | > 100 µM (inactive) | > 100 µM (inactive) | > 100 µM (inactive) | > 100 µM (inactive) | > 100 µM (inactive) | > 100 µM (inactive) | > 100 µM (inactive) | > 100 µM (inactive) | > 100 µM (inactive) | > 100 µM (inactive) | > 100 µM (inactive) | > 100 µM (inactive) | > 100 µM (inactive) | > 100 µM (inactive)
12 | CC(=O)Nc1ncc2c(n1)-c1ccccc1OC2c1ccccc1 (stereo not given) | > 100 µM (inactive) | 11 µM (inactive) | > 100 µM (inactive) | > 100 µM (inactive) | > 100 µM (inactive) | – | > 100 µM (inactive) | 6.89 µM (inactive) | > 100 µM (inactive) | > 100 µM (inactive) | > 100 µM (inactive) | 20.5 µM (inactive) | 32.8 µM (inactive) | > 100 µM (inactive) | 71.8 µM (inactive) | > 100 µM (inactive) | – | 42.8 µM (inactive) | 14.1 µM (inactive)
13 | COc1ccc(C=C2C(C)=NN(c3cccc(Cl)c3)C23C(Cl)C(=O)N3c2nc3ccccc3s2)cc1 (stereo not given) | – | 21.5 µM (inactive) | 3.45 µM (inactive) | 17.5 µM (inactive) | 2.05 µM (inactive) | 20 µM (inactive) | 9.51 µM (inactive) | 14.4 µM (inactive) | 17.7 µM (inactive) | 17.2 µM (inactive) | 16.5 µM (inactive) | 21.4 µM (inactive) | 20.3 µM (inactive) | 17.3 µM (inactive) | 17.4 µM (inactive) | 5.6 µM (inactive) | 22.8 µM (inactive) | 28.6 µM (inactive) | –
14 | CN(C)/C=N/c1c2c(nc3ccccc13)CCCC2 | 57.9 µM (inactive) | > 100 µM (inactive) | 44 µM (inactive) | > 100 µM (inactive) | 31.1 µM (inactive) | > 100 µM (inactive) | 36.7 µM (inactive) | > 100 µM (inactive) | 91 µM (inactive) | > 100 µM (inactive) | > 100 µM (inactive) | 36 µM (inactive) | 37.3 µM (inactive) | > 100 µM (inactive) | > 100 µM (inactive) | – | 32 µM (inactive) | > 100 µM (inactive) | > 100 µM (inactive)
15 | CCOP(=O)(OCC)C(Nc1cccc(F)c1)c1ccccc1 (stereo not given) | 43.9 µM (inactive) | 58.7 µM (inactive) | 47.1 µM (inactive) | > 100 µM (inactive) | 18.1 µM (inactive) | > 100 µM (inactive) | 58.1 µM (inactive) | 35.9 µM (inactive) | 75.7 µM (inactive) | 69.5 µM (inactive) | 78.9 µM (inactive) | 93.5 µM (inactive) | 34.5 µM (inactive) | – | 47.9 µM (inactive) | > 10 µM (inactive) | 34.8 µM (inactive) | > 100 µM (inactive) | 63 µM (inactive)
